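Values below derive from 48-hour exposures of cells grown in 96-well plates, with endpoints linearly interpolated between the two concentrations bracketing the appropriate inhibition level. TGI: total growth inhibition.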
Experiments:
Assay in all cases: NCI anticancer screen, dose series, 48 h
PC-3 prostate = tested on: PC-3 prostate
SK-MEL-5 melanoma = tested on: SK-MEL-5 melanoma
HOP-92 NSCLC = tested on: HOP-92 NSCLC
SF-295 CNS = tested on: SF-295 CNS
MDA-N = tested on: MDA-N
K-562 leukemia = tested on: K-562 leukemia
SN12C renal = tested on: SN12C renal
HCC-2998 colon = tested on: HCC-2998 colon
HL-60(TB) leukemia = tested on: HL-60(TB) leukemia
SF-268 CNS = tested on: SF-268 CNS
KM12 colon = tested on: KM12 colon
HOP-62 NSCLC = tested on: HOP-62 NSCLC
786-0 renal = tested on: 786-0 renal
T-47D breast = tested on: T-47D breast
U251 CNS = tested on: U251 CNS
SK-MEL-28 melanoma = tested on: SK-MEL-28 melanoma
BT-549 breast = tested on: BT-549 breast
SK-MEL-2 melanoma = tested on: SK-MEL-2 melanoma

SMILES	TGI (PC-3 prostate) [µM]	TGI (SK-MEL-5 melanoma) [µM]	TGI (HOP-92 NSCLC) [µM]	TGI (SF-295 CNS) [µM]	TGI (MDA-N) [µM]	TGI (K-562 leukemia) [µM]	TGI (SN12C renal) [µM]	TGI (HCC-2998 colon) [µM]	TGI (HL-60(TB) leukemia) [µM]	TGI (SF-268 CNS) [µM]	TGI (KM12 colon) [µM]	TGI (HOP-62 NSCLC) [µM]	TGI (786-0 renal) [µM]	TGI (T-47D breast) [µM]	TGI (U251 CNS) [µM]	TGI (SK-MEL-28 melanoma) [µM]	TGI (BT-549 breast) [µM]	TGI (SK-MEL-2 melanoma) [µM]
O=c1c2ccccc2nc(-c2ccccc2)n1/N=C/c1ccccc1[N+](=O)[O-]	> 100	> 100	98.4	> 83.3	> 100	> 100	> 100	> 100	> 100	> 68.7	> 100	37.1	> 100	> 100	> 94.8	> 100	> 100	> 100
CC(=O)Nn1c(Cc2ccc(Cl)cc2)nn(C)c1=O	> 100	> 100	> 100	> 100	> 100	> 100	> 100	> 100	> 100	> 100	> 100	> 100	> 100	> 100	> 100	> 100	> 100	> 100
C[C@H]1[C@H]2[C@H](C[C@@]3(C)C4=CC[C@H]5C(C)(C)[C@@H](OC6OCC(O)C(O)C6O)CC[C@@]56C[C@@]46CC[C@]23C)O[C@@]2(O)[C@@H]1OC(C)(C)[C@H]2O (some centres undefined)	2.32	4.71	3.28	6.47	7.48	50	2.75	1.45	28.8	6.35	4.12	5.7	2.76	1.81	5.5	6.23	8.78	11.5
COc1ccc(/C=C/c2cc(O)cc(OC3OC(CO)C(O)C(O)C3O)c2)cc1O (centres undefined)	> 100	> 100	> 100	> 100	> 100	> 100	> 100	> 100	> 100	> 100	86.5	> 100	> 100	> 100	> 100	> 100	> 100	> 100
CC(=O)n1nc(-c2[nH]c(C)c(-c3nn(C(C)=O)c(=S)o3)c2C)oc1=S	> 100	> 100	> 100	> 100	> 100	> 100	> 100	> 100	> 100	> 100	> 100	> 100	> 100	> 100	> 100	> 100	> 100	> 100
C=C(CN(C)C)C(=O)c1ccccc1	30.6	28.8	5.79	47.4	28.1	14.3	38.7	32.7	> 20.8	> 58.2	42.2	> 58.3	13.5	4.93	35.1	34.8	45	32.9
O=C(O[C@H](/C=C/c1ccccc1)P1(=O)N(Cc2ccccc2)[C@H]2CCCC[C@@H]2N1Cc1ccccc1)c1ccccc1	> 100	4.1	5.86	> 100	> 100	> 100	14.5	> 100	> 100	> 100	18.1	> 100	> 100	3.86	88.7	> 100	> 100	6.19
CC1CCC2C(C)C(OC(=O)CCC(=O)O)OC3OC4(C)CCC1C32OO4 (centres undefined)	> 100	17.7	31	> 100	38.7	19.8	> 100	54.3	4.65	> 100	23	> 100	> 100	> 100	31.3	> 100	> 100	42.3
C=CC(=O)C#Cc1cnc(OC)nc1OC	42	43.5	> 54.3	> 100	40.5	3.84	37.7	42.2	3.25	> 71.9	30	45.7	12.6	55.8	18.7	> 47	17.5	59.7
O=C1NC(=Nc2ccccc2Cl)N/C1=C\c1c(Cl)cccc1Cl	76.8	47.2	61.8	> 100	> 100	> 100	84.6	55.3	54.2	> 100	> 100	> 100	> 100	81.1	> 100	> 100	> 100	> 100
O=C(NCCc1ccccn1)c1ccc2cc(C(=O)N3CC(CCl)c4ccc([N+](=O)[O-])cc43)[nH]c2c1 (centres undefined)	> 100	> 100	52.1	> 68.5	> 100	> 100	> 100	> 100	> 100	> 100	> 100	48.4	> 63	> 100	> 100	> 100	> 100	> 100
CC(O)C1(O)C(O)CC(OC2c3cc4c(c(O)c3[C@@H]3C[C@@]2(C)OC32C=c3cc[nH]c3=N2)C(=O)c2cccc(O)c2C4=O)OC1C (some centres undefined)	4.86	5.56	7.44	5.73	3.41	4.78	1.13	2.84	3.07	4.38	3.77	5.37	4.98	9.07	9.03	3.78	19.3	3.11
CC(=O)OC[C@@]1(C)[C@@H]2[C@@H]3[C@@]4(CO[C@]3(C)C(=O)[C@@]3(OC(C)=O)C[C@H](C)[C@H](OC(C)=O)[C@@H]3[C@H]4OC(C)=O)[C@H](OC(=O)c3ccccc3)C[C@@H]21	> 100	> 100	> 100	> 100	> 100	> 100	> 100	> 100	> 100	> 100	> 100	> 100	> 100	> 100	> 100	> 100	> 100	> 100
COC(=O)c1ccccc1C1CN=NC12Cc1cc3c(cc1C2=O)CCC3 (centres undefined)	> 100	48.7	> 100	> 100	> 100	> 100	> 100	> 100	61.5	> 100	> 100	> 100	> 100	> 100	> 100	> 100	> 100	> 100
COC1=CC(=O)C2=C(C1=O)[C@H]1CC[C@]3(C)C(=O)CC[C@H]3[C@@H]1CC2	85.2	33.2	35.8	> 100	65.1	> 100	44.5	> 100	22.4	46.3	> 100	> 100	53.2	57.2	> 100	> 100	71.2	36.3
O=c1c2c3c(sc2nc2n1sc1nc4sc5c(c4c(=O)n12)CCCC5)CCCC3	> 100	> 100	> 91.8	> 100	97.4	> 63.3	> 100	> 76.8	62.3	> 100	> 100	> 100	31	17.1	> 100	> 100	42.4	> 100
COC(=O)CSc1cc(Cl)c(C)cc1S(=O)(=O)Nc1n[nH]c(N)n1	> 10	> 10	> 10	> 10	> 10	> 10	> 10	> 10	> 10	> 10	> 10	> 10	> 10	> 10	> 10	> 10	> 10	> 10
COc1ccc(/C(=N/Nc2nc3ccccc3n2Cc2ccccc2)C(=O)O)cc1	> 100	37.6	49.1	> 100	> 100	68.5	> 100	48.3	11.5	63.2	> 100	> 100	42.3	70.7	> 100	> 100	> 100	> 100
COC(=O)NCCc1[nH]nc2c1C(=O)C=C(Nc1ccccc1OC)C2=O	> 100	27.1	> 100	> 100	35.1	> 100	> 100	40.3	52.7	> 100	64.4	> 100	> 100	> 100	72.5	95.9	> 100	> 100
O=C(c1ccc(Cl)c(Cl)c1)N(C(=S)OC12CC3CC(CC(C3)C1)C2)c1ccccc1	> 100	40.1	> 100	> 100	> 100	> 100	> 100	> 100	69.9	> 100	> 100	> 100	> 100	> 100	> 100	> 100	> 100	40.5
NC(=S)NN=Cc1ccccc1OCc1cccc(COc2ccccc2C=NNC(N)=S)n1	> 100	> 100	14.3	20	> 100	> 100	> 100	> 100	> 100	> 100	> 100	35.3	> 72	> 100	19.3	> 100	31	33.7
CN1CCOC1(C)c1ccccc1 (centres undefined)	> 100	> 100	> 100	> 100	> 100	> 100	> 100	> 100	> 100	> 100	> 100	> 100	> 100	> 100	> 100	> 100	> 100	> 100
c1ccc(CN2C3C4N(Cc5ccccc5)C2C2N(Cc5ccccc5)C(C(N2Cc2ccccc2)N4Cc2ccccc2)N3Cc2ccccc2)cc1	> 100	> 100	> 100	> 100	> 100	> 100	> 100	> 100	> 100	> 100	> 100	> 100	> 100	> 100	> 100	> 100	> 100	> 100

Reference: PubChem BioAssay (NCI)
